Data as given in paper PMC3812281, “Synthetic Oxoisoaporphine Alkaloids: In Vitro, In Vivo and In Silico Assessment of Antileishmanial Activities” (PLoS ONE, 2013).

What follows are molecules tested against T1, acetylcholinesterase (AChE) (Homo sapiens, UniProt P22303) (assay: Ellman assay, percent inhibition at […]).
T1 construct: recombinant acetylcholinesterase (AChE) expressed in HEK 293 cells
Assay type: biochemical

T1 sequence (P22303 32-614): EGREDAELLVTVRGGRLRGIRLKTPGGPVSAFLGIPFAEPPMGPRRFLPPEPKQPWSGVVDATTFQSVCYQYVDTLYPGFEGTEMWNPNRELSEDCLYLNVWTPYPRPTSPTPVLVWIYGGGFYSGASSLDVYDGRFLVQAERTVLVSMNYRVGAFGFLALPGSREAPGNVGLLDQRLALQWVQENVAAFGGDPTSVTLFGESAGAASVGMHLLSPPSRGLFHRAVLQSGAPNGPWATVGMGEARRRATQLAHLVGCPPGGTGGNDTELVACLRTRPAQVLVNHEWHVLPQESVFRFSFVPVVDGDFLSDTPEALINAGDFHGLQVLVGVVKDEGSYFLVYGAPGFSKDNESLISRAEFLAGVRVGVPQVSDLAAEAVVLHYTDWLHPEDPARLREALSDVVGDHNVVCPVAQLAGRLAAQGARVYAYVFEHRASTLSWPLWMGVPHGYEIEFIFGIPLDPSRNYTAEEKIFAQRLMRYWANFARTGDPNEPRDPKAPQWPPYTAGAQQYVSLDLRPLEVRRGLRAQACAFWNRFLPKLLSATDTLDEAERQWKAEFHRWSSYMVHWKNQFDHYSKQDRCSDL

Compound	inhibition at 75 µM [%]
O=C1c2ccccc2C2=NCCc3cccc1c32 [OXO 1, 2,3-dihydro-7H-dibenzo[de,h]quinolin-7-one]	26.2 ± 5.6
O=C1C2=C(CCCC2)C2=NCCc3cccc1c32 [OXO 13, 2,3,8,9,10,11-hexahydro-7H-dibenzo[de,h]quinolin-7-one]	25.6 ± 5.9
C#CCN[C@@H]1CCc2ccccc21 [Rasagiline, reference compound]	82.5 ± 4.3
